Measurements as given in patent US20140107021A1 (priority 2010, published 2014).
Values belong to the compound of their own block, whether it stands above or below them. Numbered stars: 1 amine (or outer) side, 2 acyl side, 3 side chain; on linkers, the order of the positions; unused ones are H or OH. Square brackets hold non-standard residues; d marks the D form. Side chains are listed from the residue outwards. Ends that are not written are not given here. Peptide text beside a SMILES is read from it. γGlu = O=C(O)[C@H](CCC(=O)[*:2])N[*:1]; C16 acyl = 16 carbon fatty acyl group; Aib = CC(C)(N)C(=O)O

How the values were obtained:
solubility at pH 6-8 = format: physicochemical
glucagon receptor [1] = biological target: T1, glucagon receptor (Homo sapiens, UniProt P47871); experiment: cell-based; conditions: Table J
From the text: (§1) HEK293 cells co-transfected with the receptor and luciferase gene linked to a cAMP responsive element were employed for the bioassay.
(§2) All EC50s and IC50s are reported in the following examples in nM, unless indicated otherwise.

glucagon receptor [2] = biological target: T1, glucagon receptor; experiment: glucagon receptor binding; set-up: expressed in transfected cells; host or cells: HEK293; conditions: read-out: IC50(nM) (Receptor binding)
[3] = Example 8: acylated peptides injected subcutaneously daily for one week into DIO mice; format: in vivo, DIO mice (C57Bl/6 WT); conditions: 10 nmol/kg subcutaneously daily for one week
Description: Different doses of acylated peptides comprising a Lys at position 16 and an AIB at position 20 were tested in vivo. […] The mice had been on a high fat diet diet for ˜8 months. Body weight and food intake were measured on days 0, 1, 3, 5, and 7, whereas blood glucose levels were measured on Days 0 and 7 of the experiment. Each test group and control group consisted of 8 mice.

glucagon receptor [4] = biological target: T1, glucagon receptor; experiment: cAMP induction at the glucagon receptor (agonist activity), luciferase reporter assay in HEK293 cells; format: cell-based; set-up: expressed in transfected cells; host or cells: HEK293
From the text: as §1, §2

GLP-1 receptor = biological target: T2, GLP-1 receptor (Homo sapiens, UniProt P43220); experiment: cAMP induction at the GLP-1 receptor (agonist activity), firefly luciferase reporter assay in HEK293 cells; format: cell-based
T2 construct: expressed in transfected cells; host or cells: HEK293
From the text: as §1, §2

GIP receptor = biological target: T3, GIP receptor (Homo sapiens, UniProt P48546); experiment: cAMP induction at the GIP receptor (agonist activity), luciferase reporter assay in HEK293 cells; format: cell-based
T3 construct: expressed in transfected cells; host or cells: HEK293
T3 sequence (P48546 22-466): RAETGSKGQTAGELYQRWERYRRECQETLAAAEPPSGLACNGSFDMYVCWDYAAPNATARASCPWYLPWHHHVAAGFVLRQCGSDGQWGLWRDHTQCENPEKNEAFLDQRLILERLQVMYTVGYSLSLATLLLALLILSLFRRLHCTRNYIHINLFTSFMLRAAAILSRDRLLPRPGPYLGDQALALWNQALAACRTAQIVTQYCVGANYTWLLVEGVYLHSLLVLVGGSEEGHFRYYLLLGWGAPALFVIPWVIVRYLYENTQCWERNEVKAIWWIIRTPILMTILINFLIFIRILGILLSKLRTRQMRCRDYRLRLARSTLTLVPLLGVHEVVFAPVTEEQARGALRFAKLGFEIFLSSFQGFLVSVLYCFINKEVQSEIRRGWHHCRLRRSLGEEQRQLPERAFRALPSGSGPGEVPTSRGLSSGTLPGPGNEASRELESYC
From the text: as §1, §2

[5] = format: in vivo, C57Bl/6 mice; conditions: 30 nmol/kg subcutaneously daily for one week
[6] = Table 7, relative to the native ligand of the receptor

T1 sequence (P47871 26-477): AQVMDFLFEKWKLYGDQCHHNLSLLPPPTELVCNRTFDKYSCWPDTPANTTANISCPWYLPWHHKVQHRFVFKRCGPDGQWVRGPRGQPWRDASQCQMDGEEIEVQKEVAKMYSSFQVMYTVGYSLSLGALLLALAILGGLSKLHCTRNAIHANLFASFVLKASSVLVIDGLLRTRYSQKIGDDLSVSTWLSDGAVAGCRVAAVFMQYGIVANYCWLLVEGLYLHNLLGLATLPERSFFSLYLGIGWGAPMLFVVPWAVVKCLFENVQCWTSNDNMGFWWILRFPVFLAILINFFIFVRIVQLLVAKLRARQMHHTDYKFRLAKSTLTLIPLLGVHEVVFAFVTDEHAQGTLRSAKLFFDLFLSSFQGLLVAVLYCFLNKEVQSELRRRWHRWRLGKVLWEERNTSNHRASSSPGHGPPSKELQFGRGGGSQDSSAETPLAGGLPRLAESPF
T2 sequence (P43220 24-463): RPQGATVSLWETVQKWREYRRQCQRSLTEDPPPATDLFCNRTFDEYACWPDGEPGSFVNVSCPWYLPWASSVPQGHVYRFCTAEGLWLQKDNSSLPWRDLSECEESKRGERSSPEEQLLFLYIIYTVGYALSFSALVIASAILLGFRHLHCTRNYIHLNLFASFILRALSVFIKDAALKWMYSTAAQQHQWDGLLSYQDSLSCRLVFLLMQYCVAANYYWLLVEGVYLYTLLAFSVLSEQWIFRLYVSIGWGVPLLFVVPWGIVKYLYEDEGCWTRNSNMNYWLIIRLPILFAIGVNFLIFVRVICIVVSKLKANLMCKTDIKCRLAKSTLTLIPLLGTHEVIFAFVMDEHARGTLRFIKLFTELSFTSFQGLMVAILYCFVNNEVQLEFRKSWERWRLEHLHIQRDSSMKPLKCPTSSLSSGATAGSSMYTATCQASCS

- Solubility (%, pH 6-8) (solubility at pH 6-8): 11%
- IC50 (glucagon receptor [1]; IC50(nM) (cAMP, inhibit Glucagon) 0.1 nM, inhibit 0.1 nM glucagon): 2.39 nM
- IC50 (glucagon receptor [1]; IC50(nM) (cAMP, inhibit Glucagon) 0.2 nM, inhibit 0.2 nM glucagon): 42.4 nM
- IC50 (glucagon receptor [2]; Table J): 12.3 ± 2.24 nM
- IC50 (glucagon receptor [2]; Table K): 12.3 ± 0.13 nM
Compound: CSCC[C@H](NC(=O)[C@H](CC(C)C)NC(=O)[C@H](Cc1c[nH]c2ccccc12)NC(=O)[C@H](CCC(N)=O)NC(=O)[C@@H](NC(=O)[C@H](Cc1ccccc1)NC(=O)[C@H](CC(=O)O)NC(=O)[C@H](CCC(N)=O)NC(=O)[C@H](C)NC(=O)[C@H](CCCNC(=N)N)NC(=O)[C@H](CCCNC(=N)N)NC(=O)[C@H](CO)NC(=O)[C@H](CC(=O)O)NC(=O)[C@H](CC(C)C)NC(=O)[C@H](Cc1ccc(O)cc1)NC(=O)[C@H](CCCCN)NC(=O)[C@H](CO)NC(=O)[C@H](Cc1ccc(O)cc1)NC(=O)[C@H](CCC(=O)O)NC(=O)[C@H](CO)NC(=O)[C@@H](NC(=O)[C@@H](O)Cc1ccccc1)[C@@H](C)O)C(C)C)C(=O)N[C@@H](CC(N)=O)C(=O)N[C@H](C(N)=O)[C@@H](C)O [[PLA6, E9]Glucagon(aa6-29)-NH2] (HELM PEPTIDE1{[O=C([C@@H](O)Cc1ccccc1)[*:2]].T.S.E.Y.S.K.Y.L.D.S.R.R.A.Q.D.F.V.Q.W.L.M.N.T.[am]}$$$$V2.0)

Compound: Q3I7K16AIB20K10(rErE-C16) (Y[Aib]QGTFISDK([γGlu-γGlu-C16 acyl])SIYLDKQAA[Aib]EFVNWLLAGGPSSGAPPPS-NH2) [MT-385]
- total change in body weight (%) [3]: lower change in body weight
- % Relative Activity at GR (glucagon receptor [4]; [6]): 239%
- % Relative Activity GLP-1R (GLP-1 receptor; [6]): 3%
- % Relative Activity at GIPR (GIP receptor; [6]): 715%

Compound: Y1Aib2I12K16Q17A18Aib20E21N24-LAG27-29-CEX-K (YXQGTFTSDYSIYLDKQAAXEFVNWLLAGGPSSGAPPPSK; HELM PEPTIDE1{Y.[Aib].Q.G.T.F.T.S.D.Y.S.I.Y.L.D.K.Q.A.A.[Aib].E.F.V.N.W.L.L.A.G.G.P.S.S.G.A.P.P.P.S.K.[am]}$$$$V2.0; N-terminus assumed; SMILES CC[C@H](C)[C@H](NC(=O)[C@H](CO)NC(=O)[C@H](Cc1ccc(O)cc1)NC(=O)[C@H](CC(=O)O)NC(=O)[C@H](CO)NC(=O)[C@@H](NC(=O)[C@H](Cc1ccccc1)NC(=O)[C@@H](NC(=O)CNC(=O)[C@H](CCC(N)=O)NC(=O)C(C)(C)NC(=O)[C@@H](N)Cc1ccc(O)cc1)[C@@H](C)O)[C@@H](C)O)C(=O)N[C@@H](Cc1ccc(O)cc1)C(=O)N[C@@H](CC(C)C)C(=O)N[C@@H](CC(=O)O)C(=O)N[C@@H](CCCCN)C(=O)N[C@@H](CCC(N)=O)C(=O)N[C@@H](C)C(=O)N[C@@H](C)C(=O)NC(C)(C)C(=O)N[C@@H](CCC(=O)O)C(=O)N[C@@H](Cc1ccccc1)C(=O)N[C@H](C(=O)N[C@@H](CC(N)=O)C(=O)N[C@@H](Cc1c[nH]c2ccccc12)C(=O)N[C@@H](CC(C)C)C(=O)N[C@@H](CC(C)C)C(=O)N[C@@H](C)C(=O)NCC(=O)NCC(=O)N1CCC[C@H]1C(=O)N[C@@H](CO)C(=O)N[C@@H](CO)C(=O)NCC(=O)N[C@@H](C)C(=O)N1CCC[C@H]1C(=O)N1CCC[C@H]1C(=O)N1CCC[C@H]1C(=O)N[C@@H](CO)C(=O)N[C@@H](CCCCN)C(N)=O)C(C)C) [MT-280]
- change in blood glucose levels over the course of the 7-day study [5]: significant decrease in blood glucose levels
- % Relative Activity at GR (glucagon receptor [4]; Table 8): 60%
- % Relative Activity GLP-1R (GLP-1 receptor; Table 8): 225%
- % Relative Activity at GIPR (GIP receptor; Table 8): 154%
